In publication PMC8789663 (The Journal of Biological Chemistry, 2021):
pIC50: −log10 of the molar value.

Experiments:
rat islets [1] = test: Perifusion assay of rat islet GSIS, step-wise glucose increase 2.8 to 16.7 mM; details: for potentiation of first and second phase GSIS by cyclic nucleotide analog prodrug: 10 μM, representative of six independent experiments; for block of potentiation of GSIS by GLP-1, PKC inhibitors: 10 µM; for block of potentiation of GSIS by GLP-1 (1 nM), PLC inhibitor or negative control: 1 µM, pretreatment for 40 min; for effect of PLC inhibitor or negative control alone on GSIS: 1 µM in Fig. S2
GcgR = details: cited from earlier work
mouse islets = details: cited from earlier work
GLP-1R = details: cited from earlier work
PKA [2] = test system: T1, PKA; test: Live-cell FRET assay (435 nm excitation, 485/535 emission ratio, pH 7.4) with PKA substrate reporter AKAR3; inhibition of PKA activity stimulated by GLP-1.; type: cell-based, INS-1 832/13 cells transduced with AKAR3; details: n = 12
T1 construct: endogenous PKA, read out indirectly with FRET reporter AKAR3 (PKA substrate)

rat islets [3] = test: Perifusion assay of rat islet GSIS, linear glucose gradient; type: cell-based, Sprague–Dawley rat
Procedure: Monophasic insulin secretion from rat islets was measured in response to a linear gradient of glucose concentrations beginning at 3 mM and ending at 30 mM when delivered over a 50 min time course.
The panels A3–C3 illustrate box and whiskers AUC analyses with accompanying ANOVA derived p values where each symbol is the AUC value for the islets of a single perifusion chamber.

β-cell GSIS = details: cited from earlier work
Source text: (§1) A selective effect is possible based on our previous report that the cAMP antagonist prodrug Rp-8-Br-cAMPS-pAB abolished first-phase but not second-phase GSIS in response to glucose alone ([25]).

Epac = details: read-out: IC50, block of GLP-1-stimulated cAMP (H188); INS-1 832/13 cells transduced with H188, GLP-1 stimulated
PKA [4] = details: unconjugated Rp-8-Br-cAMPS; cited from earlier work
Source text: as §1

Epac1 and Epac2 = details: unconjugated Rp-8-Br-cAMPS; cited from earlier work
Source text: as §1

islets = details: raising levels of cAMP; cited from earlier work
Source text: Identifying the mechanism for this switch from cAMP-independent to cAMP-dependent insulin secretion is of great interest. Shibasaki et al. ([33]) reported a cAMP-regulated mechanism of insulin secretion that results from “restless newcomer” exocytosis in which Epac2 activation mobilizes cytoplasmic secretory granules so that they quickly transit to the plasma membrane for release without pausing in a “docked” state. When islets are stimulated with glucose alone, this newcomer exocytosis is more prominent during first-phase as compared with second-phase GSIS. Raising levels of cAMP by treatment ...

[5] = biological target: endogenous rat GLP-1 receptor (rat (endogenous in INS-1 832/13 cells and rat islets)) (UniProt P32301)
rat perfused pancreas = details: ref 11 (Moens et al.); cited from earlier work
[6] = Rp-8-Br-cAMPS-pAB 10 μM, five independent experiments

Sequence of endogenous rat GLP-1 receptor (rat (endogenous in INS-1 832/13 cells and rat islets)) (P32301 22-463): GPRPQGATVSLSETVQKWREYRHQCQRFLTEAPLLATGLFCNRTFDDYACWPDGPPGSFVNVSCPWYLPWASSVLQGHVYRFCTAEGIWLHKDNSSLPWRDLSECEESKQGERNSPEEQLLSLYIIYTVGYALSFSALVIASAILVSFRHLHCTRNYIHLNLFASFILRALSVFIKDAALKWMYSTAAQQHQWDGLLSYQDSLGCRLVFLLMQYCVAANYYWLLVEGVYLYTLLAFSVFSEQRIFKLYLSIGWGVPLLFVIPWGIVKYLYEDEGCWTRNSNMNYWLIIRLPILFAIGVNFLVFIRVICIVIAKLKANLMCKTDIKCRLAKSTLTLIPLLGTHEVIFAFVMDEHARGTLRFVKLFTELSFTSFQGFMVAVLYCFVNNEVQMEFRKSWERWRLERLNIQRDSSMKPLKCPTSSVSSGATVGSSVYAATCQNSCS

Compound: CC(=O)OCOP1(=O)OCC2OC(n3cnc4c(NC(=O)c5ccccc5)ncnc43)C(O)C2O1 (centres unmarked) [6-Bnz-cAMP-AM]
- potentiation of first and second phase GSIS by cyclic nucleotide analog prodrug (rat islets [1]): potentiated

Compound: CO[C@@H]1[C@@H]2OP(=O)(OCOC(C)=O)OC[C@H]2O[C@H]1n1c(Sc2ccc(Cl)cc2)nc2c(N)ncnc21 (some centres unmarked) [8-pCPT-2′-O-Me-cAMP-AM]
- potentiation of first and second phase GSIS by cyclic nucleotide analog prodrug (rat islets [1]): potentiated

Compound: CN(C)C[C@@H]1CCn2cc(c3ccccc32)C2=C(C(=O)NC2=O)c2cn(c3ccccc23)CCO1 [LY 333531]
- block of potentiation of GSIS by GLP-1, PKC inhibitors (rat islets [1]): failed to block

Compound: COc1ccc2cc(-c3cc(-c4cc(Cl)cc(Cl)c4)nn3[C@@H](C)c3ccc(C(=O)NCCC(=O)O)cc3)ccc2c1 [MK0893]
- glucagon action at the GcgR (GcgR): antagonizes
- glucagon-stimulated insulin secretion from mouse islets (mouse islets): inhibit
- action at the GLP-1R (GLP-1R): antagonizes

Compound: Cn1cc(C2=C(c3cn(CCCSC(=N)N)c4ccccc34)C(=O)NC2=O)c2ccccc21 [Ro 31-8220]
- block of potentiation of GSIS by GLP-1, PKC inhibitors (rat islets [1]): failed to block

Compound: CC(=O)Oc1ccc(CSP2(=O)OC[C@H]3O[C@@H](n4c(Br)nc5c(N)ncnc54)[C@H](O)[C@@H]3O2)cc1 (some centres unmarked) [Rp-8-Br-cAMPS-pAB, Rp-8-Br-cAMPS para-acetoxybenzyl (pAB) ester; membrane-permeable prodrug bioactivated by cytosolic esterases to Rp-8-Br-cAMPS]
- pIC50 (PKA [2]): 5.55

Compound: CC(=O)Oc1ccc(CSP2(=O)OC[C@H]3O[C@@H](n4c(Br)nc5c(N)ncnc54)[C@H](O)[C@@H]3O2)cc1 (some centres unmarked) [Rp-8-Br-cAMPS-pAB]
- effect on glucagon-potentiated GSIS in the gradient assay (rat islets [3]; Rp-8-Br-cAMPS-pAB 10 μM vs glucagon 10 nM): blocked
- effect on GSIS stimulated by a glucose gradient alone (rat islets [3]; Rp-8-Br-cAMPS-pAB 10 μM, three independent experiments): failed to inhibit
- antagonist action versus 5 nM GLP-1 in comparison with 1 nM GLP-1 (rat islets [1]; Rp-8-Br-cAMPS-pAB 10 μM): weaker
- block of potentiation of GSIS by glucagon (rat islets [1]; Rp-8-Br-cAMPS-pAB 10 μM vs 10 nM glucagon, three independent experiments): blocked
- block of potentiation of first and second phase GSIS by GLP-1 (rat islets [1]; Rp-8-Br-cAMPS-pAB 10 μM vs GLP-1 5, 1, and 0.1 nM): blocked
- effect on second-phase GSIS in the presence of GLP-1 (rat islets [1]; Rp-8-Br-cAMPS-pAB 10 μM, GLP-1 1 nM): greatly reduced the amplitude of second-phase GSIS
- effect on first-phase GSIS in response to glucose alone (rat islets [1]; [6]): blocked first-phase GSIS
- effect on second-phase GSIS in response to glucose alone (rat islets [1]; [6]): little ability to reduce second-phase GSIS
- effect on first-phase GSIS in response to glucose alone (β-cell GSIS): abolished
- effect on second-phase GSIS in response to glucose alone (β-cell GSIS): not
- pIC50 (Epac): 5.85

Compound: Nc1ncnc2c1nc(Br)n2C1OC2COP(O)(=S)OC2C1O (centres unmarked) [Rp-8-Br-cAMPS]
- inhibition of stimulatory effects of endogenous cAMP at PKA (PKA [4]): competitively inhibits
- inhibition of stimulatory effects of endogenous cAMP at Epac1 and Epac2 (Epac1 and Epac2): competitively inhibits

Compound: COc1ccc2c(c1)CC[C@@H]1[C@@H]2CC[C@]2(C)[C@@H](NCCCCCCN3C(=O)C=CC3=O)CC[C@@H]12 [U73122]
- block of potentiation of GSIS by GLP-1 (1 nM), PLC inhibitor or negative control (rat islets [1]; GLP-1 1 nM): failed to block
- effect of PLC inhibitor or negative control alone on GSIS (rat islets [1]): potentiated GSIS

Compound: COc1ccc2c(c1)CC[C@@H]1[C@@H]2CC[C@]2(C)[C@@H](NCCCCCCN3C(=O)CCC3=O)CC[C@@H]12 [U73343]
- block of potentiation of GSIS by GLP-1 (1 nM), PLC inhibitor or negative control (rat islets [1]; GLP-1 1 nM): failed to block
- effect of PLC inhibitor or negative control alone on GSIS (rat islets [1]): not reproduced

Compound: C=C[C@@]1(C)CC(=O)[C@]2(O)[C@@]3(C)[C@@H](O)CCC(C)(C)[C@@H]3[C@H](O)[C@H](OC(C)=O)[C@@]2(C)O1 [forskolin]
- newcomer exocytosis during first-phase (islets): potentiates
- newcomer exocytosis during second-phase (islets): greatly increasing

Compound: GLP-1[7-36]amide (ligand)
- PKA activity (AKAR3 FRET reporter) in INS-1 832/13 cells [5]: 88 pM
- rise of cAMP (H188 FRET reporter) in INS-1 832/13 cells [5]: 1.9 nM

Compound: des-His^1-Glu^9-glucagon
- effect on glucagon-potentiated GSIS in the gradient assay (rat islets [3]; des-His1-Glu9-glucagon 3 µM vs glucagon 10 nM, single experiment): not inhibited
- effect on GSIS stimulated by a glucose gradient alone (rat islets [3]; des-His1-Glu9-glucagon 3 µM, single experiment): failed to inhibit
- insulin secretion in response to glucose alone, perfused rat pancreas (rat perfused pancreas): not reduced
